Assay in all cases: growth of human tumour cells (NCI), 48 h
In assay [1] the test system is A549.
Assay [2] concerns ACHN.
For assay [3], the system named is COLO 205.
Assay [4] relates to EKVX.
Assay [5] relates to HCC 2998.
Assay [6] relates to HCT-15.
In assay [7] the test system is HL-60.
The test system of assay [8] is HT-29.
Assay [9] concerns K562.
Assay [10] relates to NCI-H23.
In assay [11] the test system is RXF 393.
Assay [12] deals with SF-295.
Assay [13] deals with SF-539.
The subject of assay [14] is SK-MEL-5.
The subject of assay [15] is SW-620.
The test system of assay [16] is M14.
Assay [17] deals with MDA-MB-435.
For assay [18], the system named is PC-3.
Assay [19] concerns NCI/ADR-RES.

The text below walks through data of ChEMBL document CHEMBL1201862, “PubChem BioAssay data set” (2004).

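Dose response: 5 concentrations. Exposure: 48 h. Format: 96-well plates. Endpoint: linear interpolation; highest concentration if not reached. Abbreviation: GI50, concentration required for 50% inhibition of growth.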 Activity calls are given as the source filed them. Cut-off read from the data, not from the text of the source: active = GI50 up to about 1.1 µM and inactive = higher. Where a SMILES comes first, the peptide text is derived from it. The star is where a group is joined. Boc = CC(C)(C)OC(=O)* Bounds are passed on as bounds.

For the molecule `N#CN1CCC=C(c2cc3ccccc3[nH]2)C1`, the GI50 in assay [1] is 394 µM (inactive); in assay [2] it was 272 µM (inactive); in [3], 388 µM (inactive); in [4], 270 µM (inactive); in assay [5], 185 µM (inactive); in [6], 370 µM. In addition, the GI50 is 164 µM (inactive) in assay [7]; > 448 µM (inactive) in assay [8]; 421 µM (inactive) in assay [9]; 182 µM (inactive) in [10]; 256 µM (inactive) in [11]; 313 µM (inactive) in assay [12]. Besides, the values for the GI50 in assay [13], in assay [14] and in assay [15] were > 448 µM (inactive), 148 µM (inactive) and 414 µM (inactive), respectively.
In the case of `COC1(CC[C@@H](C)COC2OC(CO)C(O)C(O)C2O)OC2C[C@H]3[C@@H]4CC[C@H]5C[C@@H](OC6OC(CO)C(OC7OC(CO)C(O)C(O)C7O)C(O)C6OC6OC(C)C(O)C(O)C6O)[C@H](O)C[C@]5(C)[C@H]4CC[C@]3(C)C2[C@@H]1C` (stereo partly specified), the GI50 in assay [1] is 1.92 µM (inactive); in assay [2], 1.77 µM (inactive); in assay [3] it was 2.57 µM (inactive); in assay [4], 2.14 µM (inactive); in [5], 1.7 µM (inactive); in assay [7] it was 2.32 µM (inactive). The GI50 in assay [8] is 2.19 µM (inactive); in assay [9], 2.37 µM (inactive); in assay [16], 1.84 µM (inactive); in assay [17], 1.84 µM (inactive); in assay [18], 1.87 µM (inactive); in [11], 2.04 µM (inactive). For the same molecule, the GI50 in assay [12] was 1.8 µM (inactive); in assay [13], 1.83 µM (inactive); in assay [14] it was 1.79 µM (inactive); in assay [15], 2.06 µM (inactive).
Consider `CC/C(C)=C1\OC(=O)C(C)C(O)C(Cc2cccnc2)NC(=O)C(NC(=O)c2ncccc2O)C(C)OC1=O` (stereo unspecified), for which the GI50 in assay [1] is 74.3 µM (inactive); in assay [2], 6.7 µM (inactive); in [3], > 100 µM (inactive); in [4] it was 31.3 µM (inactive); in assay [5] it was > 100 µM (inactive); in assay [6], 49.5 µM. Further, the GI50 in assay [7] is 62.8 µM (inactive); in assay [8], 42.2 µM (inactive); in [9], > 100 µM (inactive); in assay [16] it was 70.6 µM (inactive); in assay [17], > 100 µM (inactive); in [10], > 100 µM (inactive). For the same molecule, the GI50 in assay [18] is 50 µM (inactive); in [12] it was 44.4 µM (inactive); in assay [13] it was > 100 µM (inactive); in assay [14], > 100 µM (inactive); in assay [15], > 100 µM (inactive).
Consider `COC(=O)C(Cc1c[nH]c2ccccc12)NC(=O)C(Cc1c[nH]c2ccccc12)NC(=O)C(Cc1c[nH]c2ccccc12)NC(=O)OC(C)(C)C` (stereo not drawn) (Boc-Trp-Trp-Trp-OMe; configuration not given here), for which the GI50 in [1] was 39.2 µM (inactive); in assay [2] it was 18.1 µM (inactive); in [3] it was 20.4 µM (inactive); in assay [4] it was 57 µM (inactive); in [5], 18.6 µM (inactive); in assay [6] it was 19.5 µM. The GI50 in assay [7] was 16.1 µM (inactive); in assay [8] it was 19.2 µM (inactive); in assay [9], 27 µM (inactive); in assay [16], 37.3 µM (inactive); in [10], 16.2 µM (inactive); in assay [18], 15.9 µM (inactive). The GI50 in [11] was 8.93 µM (inactive); in assay [14] it was 47.9 µM (inactive); in assay [15], 21.5 µM (inactive).
As to `Nc1nc(Cl)c(N)c(NCC2(CO)CC(CCCc3ccccc3)C2)n1` (stereo unspecified), the GI50 in assay [1] was 15.5 µM (inactive); in assay [2], 35.6 µM (inactive); in assay [3], 16 µM (inactive); in [4] it was 0.223 µM (active); in [5], 38.2 µM (inactive); in [6], 51.5 µM. Also, the GI50 in assay [7] was 0.117 µM (active); in assay [9], 10.8 µM (inactive); in [16], 22 µM (inactive); in [17], 11.6 µM (inactive); in assay [18], 17.9 µM (inactive); in [12], 14 µM (inactive). Also, the GI50 in assay [13] was 30 µM (inactive); in assay [15], 40.1 µM (inactive).
As to `c1ccc2c(c1)ccc1nc(-c3ccc4c(c3)OCO4)c3c(c12)CCC3`, the GI50 in assay [1] is 95.9 µM (inactive); in assay [2] it was > 100 µM (inactive); in assay [3] it was 56.9 µM (inactive); in [4], 89.3 µM (inactive); in assay [5] it was 79.4 µM (inactive); in assay [6], 83.2 µM. Also, the GI50 in assay [8] was 41.1 µM (inactive); in [9], 20.5 µM (inactive); in [16], > 100 µM (inactive); in [17], 59.6 µM (inactive); in assay [10], 60.3 µM (inactive); in [19], 59.2 µM (inactive). Moreover, the GI50 is 56.4 µM (inactive) in assay [18], 77.4 µM (inactive) in [12], > 100 µM (inactive) in assay [13] and > 100 µM (inactive) in assay [15].
As for `CCN(C(=N)C#N)c1ccccc1`, the GI50 in [1] is > 100 µM (inactive); in [2] it was > 100 µM (inactive); in assay [3], > 95.3 µM (inactive); in assay [4], > 100 µM (inactive); in assay [5] it was > 100 µM (inactive); in [6] it was greater than 45.4 µM. Besides, the GI50 in [7] was > 46.9 µM (inactive); in assay [8] it was > 89.7 µM (inactive); in assay [9] it was > 75.5 µM (inactive); in [16], > 100 µM (inactive); in [10], > 100 µM (inactive); in [11], > 100 µM (inactive). Besides, the GI50 was > 100 µM (inactive) in assay [12], 13.6 µM (inactive) in [13], > 100 µM (inactive) in assay [14] and 20.5 µM (inactive) in assay [15].
For the molecule `COCOc1ccc(C(=O)Oc2cccc3c2OC(C)(C)O3)c(OCOC)c1`, the GI50 was > 100 µM (inactive) in [2]; > 100 µM (inactive) in assay [3]; > 100 µM (inactive) in assay [4]; 62.7 µM (inactive) in assay [5]; 83.4 µM in [6]; 0.0181 µM (active) in assay [7]. In addition, the GI50 in assay [8] was > 100 µM (inactive); in [9], 56.4 µM (inactive); in [16], 89.1 µM (inactive); in assay [17], 60 µM (inactive); in [10] it was < 0.01 µM (active); in assay [19], > 100 µM (inactive). Moreover, the GI50 in assay [11] was 78.2 µM (inactive); in [12], > 100 µM (inactive); in assay [13] it was 37.7 µM (inactive); in [14] it was 54.8 µM (inactive); in assay [15], 43.2 µM (inactive).
With `C=CC[C@@H]1C(=O)[C@@]2(O[Si](C(C)C)(C(C)C)C(C)C)CC[C@@H]1C[C@H]2NC(=O)OCC(Cl)(Cl)Cl`, the GI50 in assay [1] was > 100 µM (inactive); in assay [2], 73.8 µM (inactive); in assay [3], > 100 µM (inactive); in assay [5], 43.2 µM (inactive); in [6], 91.6 µM; in assay [8] it was > 100 µM (inactive). Further, the GI50 is 61.8 µM (inactive) in [9]; > 100 µM (inactive) in assay [16]; > 100 µM (inactive) in assay [17]; > 100 µM (inactive) in [10]; > 100 µM (inactive) in assay [19]; 32.9 µM (inactive) in assay [18]. The GI50 in assay [12] was 5.35 µM (inactive); in assay [14], > 100 µM (inactive); in assay [15] it was > 100 µM (inactive).
For the molecule `C[C@@H]1C(=O)C[C@H]2C(C)(C)CCC[C@]2(C)[C@@]1(O)CCc1ccoc1`, the GI50 is > 100 µM (inactive) in assay [1]; > 100 µM (inactive) in assay [2]; > 100 µM (inactive) in assay [3]; > 100 µM (inactive) in [4]; > 100 µM (inactive) in [5]; greater than 100 µM in assay [6]. The GI50 in assay [7] is 53 µM (inactive); in [8], > 100 µM (inactive); in [9], > 100 µM (inactive); in assay [16] it was > 100 µM (inactive); in [17], > 100 µM (inactive); in assay [10], > 100 µM (inactive). The GI50 in [18], in assay [11], in assay [12], in assay [13], in assay [14] and in [15] was > 100 µM (inactive) in each case.
As to `Cc1ccc(Oc2cc(C)ccc2P(=O)(O)O)cc1`, the GI50 in assay [1] was > 100 µM (inactive); in assay [3], > 100 µM (inactive); in assay [4], > 100 µM (inactive); in assay [5], > 100 µM (inactive); in assay [6] it was greater than 100 µM; in [7], > 100 µM (inactive). The GI50 in assay [9], in assay [16], in [17], in assay [10], in assay [18] and in assay [11] was > 100 µM (inactive) in each case. For the same molecule, the GI50 in assay [12], in assay [13], in assay [14] and in assay [15] was > 100 µM (inactive) each time.
As for `COc1cc2c(cc1-c1coc3cc(OCC=C(C)C)ccc3c1=O)OCO2`, the GI50 in [1] is 28.6 µM (inactive); in assay [2], 29.3 µM (inactive); in assay [3], 29.4 µM (inactive); in assay [4], 24.3 µM (inactive); in assay [5] it was 15.4 µM (inactive); in assay [6], 9.77 µM. Also, the GI50 in assay [7] was 10 µM (inactive); in assay [9] it was 6.85 µM (inactive); in [16], 26.8 µM (inactive); in assay [17], 9.25 µM (inactive); in assay [10], 24.4 µM (inactive); in assay [18], 42.8 µM (inactive). Moreover, the GI50 in [12] was 33.6 µM (inactive); in [13], 36.2 µM (inactive); in assay [14], 16.8 µM (inactive); in [15], 25.5 µM (inactive).
